The values below come from patent publication US5032577A, “Peptidylaminodiols” (Abbott Laboratories, priority 1987, dated 1991).

The test deals with T1, human renal renin (Homo sapiens, UniProt P00797).
T1 construct: human renal renin, free from acid proteolytic activity; from tissue
T1 sequence (P00797 67-406): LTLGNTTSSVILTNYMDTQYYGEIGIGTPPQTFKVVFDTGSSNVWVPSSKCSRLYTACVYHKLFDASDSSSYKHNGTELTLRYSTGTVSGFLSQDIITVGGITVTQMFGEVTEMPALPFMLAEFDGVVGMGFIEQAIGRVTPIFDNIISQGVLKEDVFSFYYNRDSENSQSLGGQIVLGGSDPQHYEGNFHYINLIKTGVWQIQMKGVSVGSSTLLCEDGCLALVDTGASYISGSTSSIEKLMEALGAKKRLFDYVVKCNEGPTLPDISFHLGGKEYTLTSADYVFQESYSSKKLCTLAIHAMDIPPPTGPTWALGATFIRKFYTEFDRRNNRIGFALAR
In words: Inhibition of human renal renin in vitro; angiotensin I formed measured by radioimmunoassay. The format is biochemical.

`CC(C)C[C@H](NC(=O)[C@H](Cc1ccccc1)NC(=O)CCCC(=O)O)C(=O)N[C@@H](CC1CCCCC1)[C@@H](O)[C@@H](O)CC(C)C` [Example 184, 4-Carboxybutyroyl-Phe-Leu Amide of 2(S)-Amino-l-cyclohexyl-3(R),4(S)-dihydroxy-6-methylheptane] returned an IC50 of 0.59 nM.

Turning to `CCOC(=O)[C@H](C)N[C@@H](Cc1ccccc1)C(=O)N[C@@H](Cc1c[nH]cn1)C(=O)N[C@@H](CC1CCCCC1)[C@@H](O)[C@@H](O)CC(C)C` [Example 185B, [l(S)-(Ethoxycarbonyl)-ethyl]-Phe-His Amide of 2(S)-Amino-1-cyclohexyl-3(R),4(S)-dihydroxy-6-methylheptane], inhibition was half-maximal at 0.51 nM (IC50).

`CC(C)C[C@H](O)[C@H](O)[C@H](CC1CCCCC1)NC(=O)[C@H](Cc1c[nH]cn1)NC(=O)[C@H](Cc1ccccc1)NC(=O)COCC(=O)O` [Example 186, Carboxymethoxymethylcarbonyl-Phe-His Amide of 2(S)-Amino-1-cyclohexyl-3(R),4(S)-dihydroxy-6-methylheptane] displayed an IC50 of 2 nM.

Regarding `COC(=O)C(CCCCC(=O)N[C@@H](Cc1ccc(OC)cc1)C(=O)N[C@@H](CC(C)C)C(=O)N[C@@H](CC1CCCCC1)[C@@H](O)[C@@H](O)CC(C)C)NC(=O)OCc1ccccc1` (stereo partly drawn) [Example 192, 6-(BenzYloxYcarbonyl)amino-6-(methoxycarbonyl)hexanoyl-(4-OMe)Phe-Leu Amide of 2(S)-Amino-l-cyclohexyl-3(R),4(S)-dihydroxy-6-methylheptane], the 50% inhibitory concentration (IC50) came out at 0.61 nM.

For the molecule `COC(=O)C(N)CCCCC(=O)N[C@@H](Cc1ccc(OC)cc1)C(=O)N[C@@H](CC(C)C)C(=O)N[C@@H](CC1CCCCC1)[C@@H](O)[C@@H](O)CC(C)C` (stereo partly drawn) [Example 193, 6-Amino-6-(methoxycarbonyl)hexanoyl-(4-OMe)Phe-Leu Amide of 2(S)-Amino-l-cyclohexyl-3(R),4(S)-dihydroxy-6-methylheptane], the IC50 is 0.74 nM.

The molecule `COc1ccc(C[C@H](NC(=O)CCCCC(N)C(=O)O)C(=O)N[C@@H](CC(C)C)C(=O)N[C@@H](CC2CCCCC2)[C@@H](O)[C@@H](O)CC(C)C)cc1` (stereo partly drawn) [Example 194, 6-Amino-6-carboxyhexanoyl-(4-OMe)Phe-Leu Amide of 2(S)-Amino-l-cyclohexyl-3(R),4(S)-dihydroxy-6-methylheptane] displayed an IC50 of 2.3 nM.

`COCCOCOCCN(C)C(=O)C[C@@H](Cc1ccccc1)C(=O)N[C@@H](Cc1c[nH]cn1)C(=O)N[C@@H](CC1CCCCC1)[C@@H](O)[C@@H](O)CC(C)C` [Example 214, (2R)-2-Benzyl-3-(N-methyl-N-2-methoxyethoxymethoxyethylamino-carbonyl)propionyl-His Amide of 2(S)-Amino-l-cyclohexyl-3(R),4(S)-dihydroxy-6-methylheptane]: the IC50 worked out at 0.24 nM.

For orientation: IC50 means the point on the concentration scale where inhibition reaches its midpoint.
